Assay results from patent US10123993B2, “Cyclic ureas as inhibitors of rock” (BRISTOL-MYERS SQUIBB COMPANY, priority 2015, dated 2018).

Each molecule was assayed against ROCK2 (Homo sapiens, UniProt O75116) (assay: ROCK2 kinase inhibition assay (Caliper LABCHIP, FITC peptide substrate)). Conditions: 5 μM ATP, 1.5 μM peptide substrate; value ranges.
Assay type: biochemical
Description: The effectiveness of compounds of the present invention as ROCK inhibitors can be determined in a 30 μL assay containing 20 mM HEPES, pH 7.5, 20 mM MgCl2, 0.015% Brij-35, 4 mM DTT, 5 μM ATP and 1.5 μM peptide substrate (FITC-AHA-AKRRRLSSLRA-OH). Compounds were dissolved in DMSO so that the final concentration of DMSO was <2%, and the reaction was initiated with Rho kinase variants. After incubation, the reaction was terminated by the addition of EDTA and the phosphorylated and non-phosphorylated peptides separated using a LABCHIP® 3000 Reader (Caliper Life Sciences). […] Compounds were tested in dose-response format, and the inhibition of kinase activity was calculated at each concentration of compound. The inhibition data were fit using a curve-fitting program to determine the IC50; i.e., the concentration of compound required to inhibit 50% of kinase activity.
Representative Examples were tested in the ROCK2 assay described above and found having ROCK inhibitory activity.

Sequence of ROCK2 (O75116 whole entry, species assumed): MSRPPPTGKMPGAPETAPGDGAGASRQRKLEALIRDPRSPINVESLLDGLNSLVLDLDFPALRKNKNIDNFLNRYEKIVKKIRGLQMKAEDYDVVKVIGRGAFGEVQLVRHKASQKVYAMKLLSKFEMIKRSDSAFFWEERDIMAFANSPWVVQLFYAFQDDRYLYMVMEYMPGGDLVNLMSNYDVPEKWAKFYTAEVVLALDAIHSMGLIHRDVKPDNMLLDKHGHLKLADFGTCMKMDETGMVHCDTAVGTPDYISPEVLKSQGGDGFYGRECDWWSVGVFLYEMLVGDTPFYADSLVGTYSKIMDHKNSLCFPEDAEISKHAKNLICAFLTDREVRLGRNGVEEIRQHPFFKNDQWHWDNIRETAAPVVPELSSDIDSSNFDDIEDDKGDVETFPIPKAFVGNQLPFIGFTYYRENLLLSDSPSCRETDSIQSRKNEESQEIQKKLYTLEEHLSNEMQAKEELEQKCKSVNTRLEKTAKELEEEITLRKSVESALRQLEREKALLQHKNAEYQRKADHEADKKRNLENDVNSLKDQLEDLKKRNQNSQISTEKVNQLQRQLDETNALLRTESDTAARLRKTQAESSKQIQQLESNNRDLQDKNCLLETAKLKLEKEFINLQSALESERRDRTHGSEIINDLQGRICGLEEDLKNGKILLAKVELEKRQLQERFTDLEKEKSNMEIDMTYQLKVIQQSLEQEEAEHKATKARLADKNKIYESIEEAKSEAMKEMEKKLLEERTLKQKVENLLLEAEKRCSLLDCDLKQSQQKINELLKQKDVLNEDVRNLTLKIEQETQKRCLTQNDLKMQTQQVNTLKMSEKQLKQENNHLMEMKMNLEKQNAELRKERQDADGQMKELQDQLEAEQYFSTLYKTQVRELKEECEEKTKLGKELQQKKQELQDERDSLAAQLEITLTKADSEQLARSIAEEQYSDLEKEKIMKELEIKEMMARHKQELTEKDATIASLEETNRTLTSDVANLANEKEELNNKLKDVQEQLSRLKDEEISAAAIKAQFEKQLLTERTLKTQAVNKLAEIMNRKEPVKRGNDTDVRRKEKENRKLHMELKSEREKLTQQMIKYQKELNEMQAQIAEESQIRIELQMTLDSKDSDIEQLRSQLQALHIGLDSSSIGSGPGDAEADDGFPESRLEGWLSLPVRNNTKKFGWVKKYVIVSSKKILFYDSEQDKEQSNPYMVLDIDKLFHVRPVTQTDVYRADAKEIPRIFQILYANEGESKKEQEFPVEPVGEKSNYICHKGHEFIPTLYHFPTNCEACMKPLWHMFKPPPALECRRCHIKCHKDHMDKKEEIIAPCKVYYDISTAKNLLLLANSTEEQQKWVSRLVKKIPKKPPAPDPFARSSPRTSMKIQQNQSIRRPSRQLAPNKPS

Row | SMILES | IC50 [nM]
1 | COc1cccc(C(C)n2ccn(-c3ccc(-c4cn[nH]c4)c(C)n3)c2=O)c1 (single isomer, unassigned) [Example 189, 1-(1-(3-methoxy-phenyl)-ethyl)-3-(6-methyl-5-(1H-pyrazol-4-yl)pyridin-2-yl)-1H-imidazol-2(3H)-one] | 20.1 to 200
2 | COc1cccc(C(C)N2CCN(c3ccc(-c4cn[nH]c4)c(C)c3)C2=O)c1 (single isomer, unassigned) [Example 192, 1-(1-(3-methoxy-phenyl)-ethyl)-3-(3-methyl-4-(1H-pyrazol-4-yl)phenyl) imidazolidin-2-one] | 200 to 2000
3 | COc1cccc(C(C)N2CCN(c3ccc(-c4cn[nH]c4)c(C)c3)C2=O)c1 (single isomer, unassigned) [Example 193, 1-(1-(3-methoxy-phenyl)-ethyl)-3-(3-methyl-4-(1H-pyrazol-4-yl)phenyl) imidazolidin-2-one] | 2.1 to 20
4 | CC(c1cccc(OCC2CC2)c1)N1CCN(c2ccc(-c3cn[nH]c3)cc2)C1=O (single isomer, unassigned) [Example 195, 1-(4-(1H-pyrazol-4-yl)-phenyl)-3-(1-(3-(cyclo-propyl-methoxy)-phenyl)-ethyl)-imidazolidin-2-one] | 200 to 2000
5 | CC(c1cccc(OCC2CC2)c1)N1CCN(c2ccc(-c3cn[nH]c3)cc2)C1=O (single isomer, unassigned) [Example 196, 1-(4-(1H-pyrazol-4-yl)-phenyl)-3-(1-(3-(cyclo-propyl-methoxy)-phenyl)-ethyl)-imidazolidin-2-one] | 2.1 to 20
6 | COc1cc(F)cc(C(C)N2CCN(c3ccc(-c4cn[nH]c4)cc3)C2=O)c1 (single isomer, unassigned) [Example 197, 1-(4-(1H-pyrazol-4-yl)-phenyl)-3-(1-(3-fluoro-5-methoxy-phenyl)ethyl) imidazolidin-2-one] | < 2
7 | COc1cc(F)cc(C(C)N2CCN(c3ccc(-c4cn[nH]c4)cc3)C2=O)c1 (single isomer, unassigned) [Example 198, 1-(4-(1H-pyrazol-4-yl)-phenyl)-3-(1-(3-fluoro-5-methoxy-phenyl)ethyl) imidazolidin-2-one] | 200 to 2000
8 | Cc1nc(N2CCN(C(C)c3cccc(OCC4CC4)c3)C2=O)ccc1-c1cn[nH]c1 (single isomer, unassigned) [Example 204, 1-(1-(3-(cyclopropyl-methoxy)-phenyl)-ethyl)-3-(6-methyl-5-(1H-pyrazol-4-yl)pyridin-2-yl)-imidazolidin-2-one] | 20.1 to 200
9 | COc1cc(F)cc(C(C)N2CCN(c3ccc(-c4cn[nH]c4)c(C)n3)C2=O)c1 (single isomer, unassigned) [Example 206, 1-(1-(3-fluoro-5-methoxy-phenyl)-ethyl)-3-(6-methyl-5-(1H-pyrazol-4-yl)pyridin-2-yl)-imidazolidin-2-one] | < 2
10 | COc1cc(F)cc(C(C)N2CCN(c3ccc(-c4cn[nH]c4)c(C)n3)C2=O)c1 (single isomer, unassigned) [Example 207, 1-(1-(3-fluoro-5-methoxyphenyl)ethyl)-3-(6-methyl-5-(1H-pyrazol-4-yl)pyridin-2-yl)imidazolidin-2-one] | 200 to 2000
11 | COc1cc(C(C)N2CCN(c3ccc(-c4cn[nH]c4)c(C)n3)C2=O)ccc1F (single isomer, unassigned) [Example 208, 1-(1-(4-fluoro-3-methoxyphenyl)ethyl)-3-(6-methyl-5-(1H-pyrazol-4-yl)pyridin-2-yl)imidazolidin-2-one] | 200 to 2000
12 | COc1cc(C(C)N2CCN(c3ccc(-c4cn[nH]c4)c(C)n3)C2=O)ccc1F (single isomer, unassigned) [Example 209, 1-(1-(4-fluoro-3-methoxyphenyl)ethyl)-3-(6-methyl-5-(1H-pyrazol-4-yl)pyridin-2-yl)imidazolidin-2-one] | 2.1 to 20
13 | COc1nc(N2CCN(C(C)c3cccc(OCC4CC4)c3)C2=O)ccc1-c1cn[nH]c1 (single isomer, unassigned) [Example 212, 1-(1-(3-(cyclopropylmethoxy)phenyl)ethyl)-3-(6-methoxy-5-(1H-pyrazol-4-yl)pyridin-2-yl)imidazolidin-2-one] | 2.1 to 20
14 | COc1nc(N2CCN(C(C)c3cccc(OCC4CC4)c3)C2=O)ccc1-c1cn[nH]c1 (single isomer, unassigned) [Example 213, 1-(1-(3-(cyclopropylmethoxy)phenyl)ethyl)-3-(6-methoxy-5-(1H-pyrazol-4-yl)pyridin-2-yl)imidazolidin-2-one] | 200 to 2000
15 | COc1cccc(C(C)N2CCN(c3ccc(-c4cn[nH]c4)c(OC)n3)C2=O)c1 (single isomer, unassigned) [Example 219, 1-(6-methoxy-5-(1H-pyrazol-4-yl)pyridin-2-yl)-3-(1-(3-methoxyphenyl)ethyl)imidazolidin-2-one] | < 2
16 | COc1cccc(C(C)N2CCN(c3ccc(-c4cn[nH]c4)c(OC)n3)C2=O)c1 (single isomer, unassigned) [Example 220, 1-(6-methoxy-5-(1H-pyrazol-4-yl)pyridin-2-yl)-3-(1-(3-methoxyphenyl)ethyl)imidazolidin-2-one] | 20.1 to 200
17 | COc1cc(F)cc(C(C)N2CCN(c3ccc(-c4cn[nH]c4)c(OC)n3)C2=O)c1 (single isomer, unassigned) [Example 228, 1-(1-(3-fluoro-5-methoxyphenyl)ethyl)-3-(6-methoxy-5-(1H-pyrazol-4-yl)pyridin-2-yl)imidazolidin-2-one] | < 2
18 | COc1cc(F)cc(C(C)N2CCN(c3ccc(-c4cn[nH]c4)c(OC)n3)C2=O)c1 (single isomer, unassigned) [Example 229, 1-(1-(3-fluoro-5-methoxyphenyl)ethyl)-3-(6-methoxy-5-(1H-pyrazol-4-yl)pyridin-2-yl)imidazolidin-2-one] | 2.1 to 20
19 | COc1cc(C(C)N2CCN(c3ccc(-c4cn[nH]c4)c(OC)n3)C2=O)ccc1F (single isomer, unassigned) [Example 230, 1-(1-(4-fluoro-3-methoxyphenyl)ethyl)-3-(6-methoxy-5-(1H-pyrazol-4-yl)pyridin-2-yl)imidazolidin-2-one] | < 2
20 | COc1cc(C(C)N2CCN(c3ccc(-c4cn[nH]c4)c(OC)n3)C2=O)ccc1F (single isomer, unassigned) [Example 231, 1-(1-(4-fluoro-3-methoxyphenyl)ethyl)-3-(6-methoxy-5-(1H-pyrazol-4-yl)pyridin-2-yl)imidazolidin-2-one] | 20.1 to 200
21 | CCc1nc(N2CCN(C(C)c3cccc(OCC4CC4)c3)C2=O)ccc1-c1cn[nH]c1 (single isomer, unassigned) [Example 265, 1-(1-(3-(cyclopropylmethoxy)phenyl)ethyl)-3-(6-ethyl-5-(1H-pyrazol-4-yl)pyridin-2-yl)imidazolidin-2-one] | 20.1 to 200
22 | CCOc1cccc(C(C)N2CCN(c3ccc(-c4cn[nH]c4)c(CC)n3)C2=O)c1 (single isomer, unassigned) [Example 266, 1-(1-(3-ethoxyphenyl)ethyl)-3-(6-ethyl-5-(1H-pyrazol-4-yl)pyridin-2-yl)imidazolidin-2-one] | 2.1 to 20
23 | CCOc1cccc(C(C)N2CCN(c3ccc(-c4cn[nH]c4)c(CC)n3)C2=O)c1 (single isomer, unassigned) [Example 267, 1-(1-(3-ethoxyphenyl)ethyl)-3-(6-ethyl-5-(1H-pyrazol-4-yl)pyridin-2-yl)imidazolidin-2-one] | 200 to 2000
24 | CCc1nc(N2CCN(C(C)c3cc(F)cc(OC)c3)C2=O)ccc1-c1cn[nH]c1 (single isomer, unassigned) [Example 268, 1-(6-ethyl-5-(1H-pyrazol-4-yl)pyridin-2-yl)-3-(1-(3-fluoro-5-methoxyphenyl)ethyl)imidazolidin-2-one] | < 2
25 | CCc1nc(N2CCN(C(C)c3cc(F)cc(OC)c3)C2=O)ccc1-c1cn[nH]c1 (single isomer, unassigned) [Example 269, 1-(6-ethyl-5-(1H-pyrazol-4-yl)pyridin-2-yl)-3-(1-(3-fluoro-5-methoxyphenyl)ethyl)imidazolidin-2-one] | 20.1 to 200
26 | CCc1nc(N2CCN(C(C)c3ccc(F)c(OC)c3)C2=O)ccc1-c1cn[nH]c1 (single isomer, unassigned) [Example 270, 1-(6-ethyl-5-(1H-pyrazol-4-yl)pyridin-2-yl)-3-(1-(4-fluoro-3-methoxyphenyl)ethyl)imidazolidin-2-one] | 2.1 to 20
27 | CCc1nc(N2CCN(C(C)c3ccc(F)c(OC)c3)C2=O)ccc1-c1cn[nH]c1 (single isomer, unassigned) [Example 271, 1-(6-ethyl-5-(1H-pyrazol-4-yl)pyridin-2-yl)-3-(1-(4-fluoro-3-methoxyphenyl)ethyl)imidazolidin-2-one] | 200 to 2000
28 | COc1cccc(C(C)(CO)N2CCN(c3ccc(-c4cn[nH]c4)cc3)C2=O)c1 (single isomer, unassigned) [Example 286, 1-(4-(1H-Pyrazol-4-yl)phenyl)-3-(1-hydroxy-2-(3-methoxyphenyl)propan-2-yl)imidazolidin-2-one] | 20.1 to 200
29 | COc1cccc(C(C)(CO)N2CCN(c3ccc(-c4cn[nH]c4)cc3)C2=O)c1 (single isomer, unassigned) [Example 287, 1-(4-(1H-Pyrazol-4-yl)phenyl)-3-(1-hydroxy-2-(3-methoxyphenyl)propan-2-yl)imidazolidin-2-one] | 20.1 to 200
30 | COc1cccc(C(C(=O)O)N2CCN(c3ccc(-c4cn[nH]c4)cc3)C2=O)c1 (single isomer, unassigned) [Example 288, 2-(3-(4-(1H-Pyrazol-4-yl)phenyl)-2-oxoimidazolidin-1-yl)-2-(3-methoxyphenyl)acetic Acid] | 200 to 2000
